Test results reported in ChEMBL document CHEMBL1201862, “PubChem BioAssay data set” (2004).
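A five-concentration, 48-hour dose response in 96-well plates underlies each endpoint, interpolated linearly between surrounding concentrations. GI50 is the concentration that inhibits growth by half.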 Calls of active or inactive are those of the source. No stated cut-off is given here; in the data, active = GI50 up to about 1.1 µM and inactive = higher. *1 amine or outer side, *2 acyl side, *3 side chain or, on linkers, in order; H or OH if unused. Where a SMILES comes first, the peptide text is derived from it. [ ]: non-standard residue; d: D form. The star is where a group is joined. ξ: configuration not given here. X53 = CC(C)C[C@H](N[*:1])C1=N[C@H](C(=O)[*:2])CS1; Ile(3ξ) = CCC(C)[C@H](N)C(=O)O; Allyl(1,1-Me2) = C=CC(C)(C)*

Legend:
Test in all cases: NCI-60 cell line screen, 48 h
HCC 2998 = test system: HCC 2998
MDA-MB-231 = test system: MDA-MB-231
SK-OV-3 = test system: SK-OV-3
A549 = test system: A549
KM12 = test system: KM12
HL-60 = test system: HL-60
MOLT-4 = test system: MOLT-4
NCI-H23 = test system: NCI-H23
SNB-19 = test system: SNB-19
TK-10 = test system: TK-10
786-0 = test system: 786-0
OVCAR-3 = test system: OVCAR-3
Malme-3M = test system: Malme-3M
LOX IMVI = test system: LOX IMVI
UO-31 = test system: UO-31
NCI-H460 = test system: NCI-H460
OVCAR-4 = test system: OVCAR-4
RXF 393 = test system: RXF 393
CCRF-CEM = test system: CCRF-CEM
HT-29 = test system: HT-29

| Structure (SMILES) | GI50 (HCC 2998) | GI50 (MDA-MB-231) | GI50 (SK-OV-3) | GI50 (A549) | GI50 (KM12) | GI50 (HL-60) | GI50 (MOLT-4) | GI50 (NCI-H23) | GI50 (SNB-19) | GI50 (TK-10) | GI50 (786-0) | GI50 (OVCAR-3) | GI50 (Malme-3M) | GI50 (LOX IMVI) | GI50 (UO-31) | GI50 (NCI-H460) | GI50 (OVCAR-4) | GI50 (RXF 393) | GI50 (CCRF-CEM) | GI50 (HT-29) |
| --- | --- | --- | --- | --- | --- | --- | --- | --- | --- | --- | --- | --- | --- | --- | --- | --- | --- | --- | --- | --- |
| N=c1sc2ccccc2n1CC[S-].c1ccc2c(c1)sc1[n+]2CCS1 | 17.1 µM (inactive) | 17 µM (inactive) | 23.1 µM (inactive) | 16.9 µM (inactive) | 17.5 µM (inactive) | 22.5 µM (inactive) | 3 µM (inactive) | 16.1 µM (inactive) | 19.3 µM (inactive) | 22.8 µM (inactive) | 16.8 µM (inactive) | 19.3 µM (inactive) | 17.7 µM (inactive) | 16.9 µM (inactive) | 12.5 µM (inactive) | 14.4 µM (inactive) | 16.4 µM (inactive) | 20.7 µM (inactive) | 9.06 µM (inactive) | 19 µM (inactive) |
| COc1ccc(-c2oc3c(OC)c(OC)cc(O)c3c(=O)c2OC)cc1 | > 100 µM (inactive) | 69.2 µM (inactive) | 36.5 µM (inactive) | > 100 µM (inactive) | > 100 µM (inactive) | > 100 µM (inactive) | > 100 µM (inactive) | > 100 µM (inactive) | > 100 µM (inactive) | > 100 µM (inactive) | > 100 µM (inactive) | > 100 µM (inactive) | > 100 µM (inactive) | 65 µM (inactive) | > 100 µM (inactive) | > 100 µM (inactive) | > 100 µM (inactive) | > 100 µM (inactive) | > 100 µM (inactive) | > 100 µM (inactive) |
| CCCCCCC(=O)OC[n+]1cccc(-c2c(COC(=O)NC(C)C)c(COC(=O)NC(C)C)c3n2CCC3)c1 | > 100 µM (inactive) | 47.3 µM (inactive) | 40.6 µM (inactive) | 60 µM (inactive) | > 100 µM (inactive) | 8.57 µM (inactive) | 11.6 µM (inactive) | 26.9 µM (inactive) | 90.6 µM (inactive) | 56.2 µM (inactive) | 21.6 µM (inactive) | 41.4 µM (inactive) | 38.9 µM (inactive) | 22 µM (inactive) | 26.2 µM (inactive) | 14.5 µM (inactive) | 33.7 µM (inactive) | 20.4 µM (inactive) | 9.55 µM (inactive) | 40.6 µM (inactive) |
| O=C1/C(=C/c2cccc(Br)c2)CSC/C1=C\c1cccc(Br)c1 | 1.78 µM (inactive) | 4.2 µM (inactive) | 5.79 µM (inactive) | 4.32 µM (inactive) | 1.99 µM (inactive) | 1.92 µM (inactive) | 1.87 µM (inactive) | 3.66 µM (inactive) | 2.88 µM (inactive) | 5.69 µM (inactive) | 3.45 µM (inactive) | 3.38 µM (inactive) | 1.92 µM (inactive) | 1.57 µM (inactive) | 2.04 µM (inactive) | 2.57 µM (inactive) | 2.82 µM (inactive) | 1.79 µM (inactive) | 1.4 µM (inactive) | 2.29 µM (inactive) |
| COCC(C#N)NC1CC(OC2CC(O)(C(=O)CO)Cc3c(O)c4c(c(O)c32)C(=O)c2c(OC)cccc2C4=O)OC(C)C1O (stereo not given) | 0.145 µM (active) | 0.112 µM (active) | 0.0869 µM (active) | 0.0521 µM (active) | 0.103 µM (active) | 0.0193 µM (active) | < 0.0137 µM (active) | 0.0592 µM (active) | 0.0427 µM (active) | 0.19 µM (active) | 0.0434 µM (active) | 0.153 µM (active) | 0.0344 µM (active) | 0.0292 µM (active) | 0.442 µM (active) | < 0.01 µM (active) | 0.282 µM (active) | 0.177 µM (active) | 0.0202 µM (active) | 0.151 µM (active) |
| Cc1cc(-c2nc3cc(O)ccc3s2)ccc1N | 37.8 µM (inactive) | 30 µM (inactive) | 19.3 µM (inactive) | 37 µM (inactive) | 23.2 µM (inactive) | 32.1 µM (inactive) | 96.2 µM (inactive) | 46.1 µM (inactive) | 33.7 µM (inactive) | 38.9 µM (inactive) | 37 µM (inactive) | 23.5 µM (inactive) | 45.7 µM (inactive) | 45 µM (inactive) | 18.7 µM (inactive) | 29 µM (inactive) | 28 µM (inactive) | 27.5 µM (inactive) | 27.7 µM (inactive) | 21.5 µM (inactive) |
| C=CC(C)(C)OC[C@@H]1NC(=O)CNC(=O)[C@@H]2CCCN2C(=O)[C@H](C(C)CC)NC(=O)[C@@H]2CSC(=N2)[C@H](CC(C)C)NC1=O (stereo not given in full) (cyclo(GS(Allyl(1,1-Me2))[X53][Ile(3ξ)]P)) | 83 µM (inactive) | > 100 µM (inactive) | > 100 µM (inactive) | 80 µM (inactive) | 55.2 µM (inactive) | 29.2 µM (inactive) | 27.5 µM (inactive) | 43.9 µM (inactive) | > 100 µM (inactive) | > 100 µM (inactive) | > 100 µM (inactive) | 47.9 µM (inactive) | > 100 µM (inactive) | > 100 µM (inactive) | 41.6 µM (inactive) | 37.6 µM (inactive) | 22.3 µM (inactive) | > 100 µM (inactive) | 30.9 µM (inactive) | 84.7 µM (inactive) |
| CC(C)N1CCN(c2ccc(OCC3COC(Cn4cncn4)(c4ccc(Cl)cc4Cl)O3)cc2)CC1 (stereo not given) [TERCONAZOLE] | 9.18 µM (inactive) | 14 µM (inactive) | 13.5 µM (inactive) | > 35.8 µM (inactive) | 13.2 µM (inactive) | 15.4 µM (inactive) | 10.9 µM (inactive) | 14.2 µM (inactive) | > 42.1 µM (inactive) | 9.62 µM (inactive) | 4.06 µM (inactive) | 13.5 µM (inactive) | 7.85 µM (inactive) | 12 µM (inactive) | > 21.9 µM (inactive) | 14.6 µM (inactive) | 17.2 µM (inactive) | 11.6 µM (inactive) | 11.5 µM (inactive) | 3.62 µM (inactive) |
